We go through one compound from ChEMBL document CHEMBL3779870, “Differential metabolism of 3FDT and docetaxel in RLMs, rats, and HLMs” (Eur J Med Chem, 2016).

Data set [1] concerns the target T1, Cytochrome P450 2C8 (Homo sapiens, UniProt P10632).
T1 sequence (P10632 whole entry): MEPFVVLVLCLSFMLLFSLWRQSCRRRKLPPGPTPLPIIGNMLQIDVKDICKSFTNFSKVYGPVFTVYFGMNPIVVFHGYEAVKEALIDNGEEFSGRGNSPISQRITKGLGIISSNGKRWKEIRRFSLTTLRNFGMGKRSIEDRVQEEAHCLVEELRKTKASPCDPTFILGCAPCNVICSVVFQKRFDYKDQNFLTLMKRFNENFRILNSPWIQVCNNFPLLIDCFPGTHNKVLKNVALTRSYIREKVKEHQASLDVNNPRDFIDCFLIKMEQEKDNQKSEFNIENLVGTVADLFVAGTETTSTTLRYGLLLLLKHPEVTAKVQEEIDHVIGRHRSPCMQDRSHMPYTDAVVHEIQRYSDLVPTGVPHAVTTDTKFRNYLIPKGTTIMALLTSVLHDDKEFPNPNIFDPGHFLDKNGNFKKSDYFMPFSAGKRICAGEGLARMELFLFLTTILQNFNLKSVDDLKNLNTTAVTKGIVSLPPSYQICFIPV
Kind of data set: Drug metabolism assessed as recombinant human CYP2C8 mediated metabolite formation at 10 uM preincubated for 5 mins followed by addition of NADPH measured after 120 mins by HPLC-TIC chromatography. In kind it is ADME. The conditions noted are these: recombinant enzyme, 2 h.

In data set [2] the test system is Plasma. The data set is described as follows: Drug metabolism in Sprague-Dawley rat plasma assessed as 7-epi-3FDT formation at 40 mg/kg, iv administered as single dose after 4 to 24 hrs by HPLC-TIC chromatography. It is filed as ADME, organism-based. The settings on record: in vivo.
Data set [3] deals with T2, Cytochrome P450 3A5 (Homo sapiens, UniProt P20815). Kind of data set: Drug metabolism assessed as recombinant human CYP3A5 mediated metabolite M1 formation at 10 uM preincubated for 5 mins followed by addition of NADPH measured after 120 mins by HPLC-TIC chromatography. It is filed as ADME. The settings on record: recombinant enzyme, 2 h.
Data set [4] has as its target T3, Cytochrome P450 3A4 (Homo sapiens, UniProt P08684). The data set is described as follows: Drug metabolism assessed as recombinant human CYP3A4 mediated metabolite M2 formation at 10 uM preincubated for 5 mins followed by addition of NADPH measured after 120 mins by HPLC-TIC chromatography. The settings on record: recombinant enzyme, 2 h. In kind it is ADME.
Data set [5] deals with T2, Cytochrome P450 3A5. The data set is described as follows: Drug metabolism assessed as recombinant human CYP3A5 mediated metabolite M2 formation at 10 uM preincubated for 5 mins followed by addition of NADPH measured after 120 mins by HPLC-TIC chromatography. In kind it is ADME. The settings on record: recombinant enzyme, 2 h.
Data set [6] is described as follows: Drug metabolism in Sprague-Dawley rat urine assessed as metabolite M4 formation at 40 mg/kg, iv administered as single dose after 24 hrs by HPLC-TIC chromatography. The settings on record: in vivo. In kind it is ADME, organism-based.
Data set [7] is described as follows: Drug metabolism in Sprague-Dawley rat urine assessed as 7-epi-3FDT formation at 40 mg/kg, iv administered as single dose after 24 hrs by HPLC-TIC chromatography. It is filed as ADME, organism-based. The conditions noted are these: in vivo.
The nature of data set [8]: Drug metabolism in Sprague-Dawley rat feces assessed as metabolite M7 formation at 40 mg/kg, iv administered as single dose after 24 hrs by HPLC-TIC chromatography. It is filed as ADME, organism-based. The settings on record: in vivo.
A short description of data set [9]: Drug metabolism in Sprague-Dawley rat urine assessed as metabolite M3 formation at 40 mg/kg, iv administered as single dose after 24 hrs by HPLC-TIC chromatography. The conditions noted are these: in vivo. In kind it is ADME, organism-based.
In data set [10] the test system is Plasma. Kind of data set: Drug metabolism in Sprague-Dawley rat plasma assessed as metabolite M4 formation at 40 mg/kg, iv administered as single dose after 4 to 24 hrs by HPLC-TIC chromatography. It is filed as ADME, organism-based. The conditions noted are these: in vivo.
Data set [11] in a line: AUC (0 to t) in Sprague-Dawley rat. In kind it is ADME, organism-based. The settings on record: in vivo.
The subject of data set [12] is Plasma. Kind of data set: Drug metabolism in Sprague-Dawley rat plasma assessed as metabolite M2 formation at 40 mg/kg, iv administered as single dose after 4 to 24 hrs by HPLC-TIC chromatography. It is filed as ADME, organism-based. The conditions noted are these: in vivo.
In data set [13] the target is T3, Cytochrome P450 3A4. Kind of data set: Drug metabolism assessed as recombinant human CYP3A4 mediated metabolite M1 formation at 10 uM preincubated for 5 mins followed by addition of NADPH measured after 120 mins by HPLC-TIC chromatography. In kind it is ADME. The settings on record: recombinant enzyme, 2 h.
Data set [14] can be described thus: Drug metabolism in Sprague-Dawley rat feces assessed as 7-epi-3FDT formation at 40 mg/kg, iv administered as single dose after 24 hrs by HPLC-TIC chromatography. In kind it is ADME, organism-based. The conditions noted are these: in vivo.
Data set [15] is described as follows: Total clearance in Sprague-Dawley rat plasma. In kind it is ADME, organism-based.
In data set [16] the target is Cytochrome P450 2C19 (Homo sapiens, UniProt P33261). Kind of data set: Drug metabolism assessed as recombinant human CYP2C19 mediated metabolite formation at 10 uM preincubated for 5 mins followed by addition of NADPH measured after 120 mins by HPLC-TIC chromatography. In kind it is ADME. The conditions noted are these: recombinant enzyme, 2 h.
Data set [17] in a line: Drug metabolism in Sprague-Dawley rat urine assessed as metabolite M2 formation at 40 mg/kg, iv administered as single dose after 24 hrs by HPLC-TIC chromatography. In kind it is ADME, organism-based. The settings on record: in vivo.
Data set [18] concerns the target T4, Cytochrome P450 1A2 (Homo sapiens, UniProt P05177).
T4 sequence (P05177 whole entry): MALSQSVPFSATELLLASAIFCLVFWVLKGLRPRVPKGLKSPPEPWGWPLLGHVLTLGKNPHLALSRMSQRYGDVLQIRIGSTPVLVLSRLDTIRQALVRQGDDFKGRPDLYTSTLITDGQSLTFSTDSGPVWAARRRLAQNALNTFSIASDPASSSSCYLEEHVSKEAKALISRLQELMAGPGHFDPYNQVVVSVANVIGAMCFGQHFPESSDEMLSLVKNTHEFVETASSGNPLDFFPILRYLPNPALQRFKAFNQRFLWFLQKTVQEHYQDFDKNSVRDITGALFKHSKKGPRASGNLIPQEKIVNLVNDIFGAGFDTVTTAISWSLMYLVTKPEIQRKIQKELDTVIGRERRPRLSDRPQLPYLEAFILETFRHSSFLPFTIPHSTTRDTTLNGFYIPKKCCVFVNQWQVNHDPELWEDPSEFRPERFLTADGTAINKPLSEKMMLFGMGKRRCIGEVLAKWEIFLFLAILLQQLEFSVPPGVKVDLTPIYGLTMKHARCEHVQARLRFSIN
The data set is described as follows: Drug metabolism assessed as recombinant human CYP1A2 mediated metabolite formation at 10 uM preincubated for 5 mins followed by addition of NADPH measured after 120 mins by HPLC-TIC chromatography. It is filed as ADME. The conditions noted are these: recombinant enzyme, 2 h.

T3 sequence (P08684 whole entry): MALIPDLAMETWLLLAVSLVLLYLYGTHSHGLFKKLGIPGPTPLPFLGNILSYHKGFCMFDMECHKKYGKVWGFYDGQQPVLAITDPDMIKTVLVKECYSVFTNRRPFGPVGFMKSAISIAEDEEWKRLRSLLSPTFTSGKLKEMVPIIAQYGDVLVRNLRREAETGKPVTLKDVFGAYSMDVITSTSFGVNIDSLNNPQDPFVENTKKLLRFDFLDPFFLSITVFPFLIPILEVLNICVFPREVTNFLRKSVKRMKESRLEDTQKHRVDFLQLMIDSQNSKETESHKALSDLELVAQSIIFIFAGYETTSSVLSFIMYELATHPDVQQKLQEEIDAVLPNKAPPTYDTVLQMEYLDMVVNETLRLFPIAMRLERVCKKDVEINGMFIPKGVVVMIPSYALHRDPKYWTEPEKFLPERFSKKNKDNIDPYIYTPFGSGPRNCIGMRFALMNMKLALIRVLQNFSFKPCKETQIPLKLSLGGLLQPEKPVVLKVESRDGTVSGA
T2 sequence (P20815 whole entry): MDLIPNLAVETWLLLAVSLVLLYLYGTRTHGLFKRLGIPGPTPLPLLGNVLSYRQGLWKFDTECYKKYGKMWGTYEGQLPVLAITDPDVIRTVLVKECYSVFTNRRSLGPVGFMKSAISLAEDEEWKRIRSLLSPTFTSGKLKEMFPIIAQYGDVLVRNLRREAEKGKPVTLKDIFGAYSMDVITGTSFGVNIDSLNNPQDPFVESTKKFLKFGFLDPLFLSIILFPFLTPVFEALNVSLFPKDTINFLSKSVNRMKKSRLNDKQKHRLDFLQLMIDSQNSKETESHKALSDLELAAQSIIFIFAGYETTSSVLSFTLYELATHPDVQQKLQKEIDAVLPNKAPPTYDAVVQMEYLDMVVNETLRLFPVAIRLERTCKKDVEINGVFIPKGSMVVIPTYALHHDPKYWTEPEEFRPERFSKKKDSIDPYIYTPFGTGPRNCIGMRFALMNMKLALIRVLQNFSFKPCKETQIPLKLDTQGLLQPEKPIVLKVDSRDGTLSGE
Sequence of Cytochrome P450 2C19 (P33261 whole entry): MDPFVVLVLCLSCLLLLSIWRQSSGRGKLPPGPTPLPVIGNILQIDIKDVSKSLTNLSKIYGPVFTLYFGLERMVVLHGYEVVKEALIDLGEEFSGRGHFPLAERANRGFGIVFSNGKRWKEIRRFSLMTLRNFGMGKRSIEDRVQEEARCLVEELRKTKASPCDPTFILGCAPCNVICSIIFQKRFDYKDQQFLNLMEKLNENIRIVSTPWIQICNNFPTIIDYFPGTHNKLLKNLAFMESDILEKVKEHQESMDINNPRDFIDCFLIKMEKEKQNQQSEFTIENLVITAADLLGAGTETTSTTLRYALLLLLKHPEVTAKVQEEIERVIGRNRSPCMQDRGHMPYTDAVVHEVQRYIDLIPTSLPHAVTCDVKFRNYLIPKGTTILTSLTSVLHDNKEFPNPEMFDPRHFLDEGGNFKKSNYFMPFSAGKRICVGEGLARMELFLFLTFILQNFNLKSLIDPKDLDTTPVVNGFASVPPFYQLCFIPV

Take `CC(=O)O[C@@]12CO[C@@H]1C[C@H](O)[C@@]1(C)C(=O)[C@H](O)C3=C(C)[C@@H](OC(=O)[C@H](O)[C@@H](NC(=O)OC(C)(C)C(F)(F)F)c4ccccc4)C[C@@](O)([C@@H](OC(=O)c4ccccc4)C12)C3(C)C` (stereo partly drawn): the Drug metabolism entry is recorded as “metabolite_notdetected” in data set [1]; “metabolite_detected” in data set [2]; “metabolite_detected” in data set [3]; “metabolite_detected” in [4]; “metabolite_detected” in data set [5]; “metabolite_detected” in data set [6]. Besides, the Drug metabolism entry in [7] is “metabolite_detected”; in [8] it was “metabolite_detected”; in data set [9], “metabolite_notdetected”; in data set [10], “metabolite_detected”; in data set [12], “metabolite_notdetected”; in data set [13], “metabolite_detected”. In addition, the Drug metabolism result in data set [14] is “metabolite_detected”; in [16], “metabolite_notdetected”; in [17] it was “metabolite_notdetected”; in data set [18], “metabolite_notdetected”. Besides, the AUC(0-t) – broadly, exposure summed from dosing to a finite time, without extrapolation to infinity – in data set [11] worked out at 3860 ng·h/mL. In addition, in data set [15], the clearance – broadly, a measure of how efficiently the substance is removed, as volume per time – is 21 mL/min/kg.
